Assay results reported in patent publication US7714132B2, “Tetrahydropyridoindole derivatives” (Actelion Pharmaceuticals, Ltd., priority 2004, dated 2010).
pIC50: −log10 of the molar value.

Legend:
hCRTH2 receptor [1] = molecular target: T1, hCRTH2 receptor (Homo sapiens, UniProt Q9Y5Y4); experiment: Intracellular calcium mobilization assay (FLIPR), antagonism of prostaglandin D2; type: cell-based; settings: HEK-293 cells stably expressing hCRTH2; agonist prostaglandin D2 10 nM final; read-out: FLIPR CRTH2 IC50
T1 construct: expressed in transfected cells
T1 sequence (Q9Y5Y4 1-395): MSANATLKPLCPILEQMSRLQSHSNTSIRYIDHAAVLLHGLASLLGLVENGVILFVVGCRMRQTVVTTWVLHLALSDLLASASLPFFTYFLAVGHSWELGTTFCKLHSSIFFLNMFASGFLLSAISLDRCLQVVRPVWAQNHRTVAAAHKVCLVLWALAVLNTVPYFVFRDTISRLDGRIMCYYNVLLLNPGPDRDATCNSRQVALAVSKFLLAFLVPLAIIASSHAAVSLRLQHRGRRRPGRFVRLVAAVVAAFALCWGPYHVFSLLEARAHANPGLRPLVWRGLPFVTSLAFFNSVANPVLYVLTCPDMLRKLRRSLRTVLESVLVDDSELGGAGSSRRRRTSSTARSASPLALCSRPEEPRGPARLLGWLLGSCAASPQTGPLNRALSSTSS
Procedure: Intracellular Calcium Mobilization Assay (FLIPR):
Cells (HEK-293), stably expressing the hCRTH2 receptor under the control of the cytomegalovirus promotor from a single insertion of the expression vector pcDNA5 (Invitrogen), are grown to confluency in DMEM (low glucose, Gibco) medium supplemented with 10% fetal calf serum (both Bioconcept, Switzerland) under standard mammalian cell culture conditions (37° C. in a humidified atmosphere of 5% CO2). Cells are detached from culture dishes using a dissociation buffer (0.02% EDTA in PBS, Gibco) for 1 min, and collected by centrifugation at 200 g at rt for 5 min in assay buffer [equal parts of Hank's BSS (HBSS, Bioconcept) and DMEM (low glucose, without phenol red, Gibco)]. After incubation for 45 min (37° C. and 5% CO2) in the presence of 1 μM Fluo-4 and 0.04% Pluronic F-127 (both Molecular Probes), 20 mM HEPES (Gibco) in assay buffer, the cells are washed with and resuspended in assay buffer, then seeded onto 3 84-welt FLIPR assay plates (Greiner) at 50,000 cells in 66 μl per well, and sedimented by centrifugation.
Stock solutions of test compounds are made up at a concentration of 10 mM in DMSO, and serially diluted in assay buffer to concentrations required for inhibition dose response curves. Prostaglandin D2 (Biomol, Plymouth Meeting, Pa.) is used as an agonist.
A FLIPR384 instrument (Molecular Devices) is operated according to the manufacturer's standard instructions, adding 4 μl of test compound dissolved at 10 mM in DMSO and diluted prior to the experiment in assay buffer to obtain the desired final concentration. 10 μl of 80 nM prostaglandin D2 (Biomol, Plymouth Meeting, Pa.) in assay buffer, supplemented with 0.8% bovine serum albumin (fatty acid content<0.02%, Sigma), is then added to obtain a final concentration of 10 nM and 0.1%, respectively. Changes in fluorescence are monitored before and after the addition of test compounds at λex=488 nm and λem=540 nm. Emission peak values above base level after prostaglandin D2 addition are exported after base line subtraction. Values are normalized to high-level control (no test compound added) after subtraction of base line value (no prostaglandin D2 added). The program XLlfit 3.0 (IDBS) is used to fit the data to a single site dose response curve of the equation (A+((B−A)/(1+((C/x)^D)))) and to calculate the IC50 values.

hCRTH2 receptor [2] = molecular target: T1, hCRTH2 receptor; experiment: CRTH2 membranes radioligand binding assay ({3H}-PGD2); settings: membranes of HEK 293 cells expressing recombinant hCRTH2; {3H}-PGD2 2.5 nM; 90 min
Procedure: Biological Assay: Preparation of CRTH2 Membranes and Radioligand Binding Assay:
Preparation of the membranes and radioligand binding assays are performed according to known procedures, e.g. Sawyer N. et al. (Br. J. Pharmacol., 2002, 137, 1163-1172). A clonal HEK 293 cell line, expressing high level of recombinant hCRTH2 receptor, is selected for the preparation of membranes. Cells are detached from culture plates in 5 ml buffer A per plate (5 mM Tris, 1 mM MgCl2x6 H2O, 0.1 mM PMSF, 0.1 mM phenanthroline) using a police rubber and transferred into centrifugation tubes and frozen at −80° C. After thawing, the cells are centrifuged at 500 g for 5 min and then resuspended in buffer A. Cells are then fragmented by homogeinization with a Polytron homogenizer for 30 s. The membrane fragments are centrifuged at 3000 g for 40 min and resuspended in membranes in buffer B (50 mM Tris, 25 mM MgCl2, 250 mM saccharose, pH 7.4) and aliquots are stored frozen.
Binding assay is performed in a total volume of 250 μl. In each well, 75 μl buffer C (50 mM Tris, 100 mM NaCl, 1 mM EDTA, 0.1% B SA (protease free), 0.01% NaN3, pH 7.4) is mixed with 50 μl {^3H}-PGD2 (at 2.5 nM (220.000 dpm per well) from Amersham, TRK734), 100 μl CRTH2 membranes to give 80 μg per well and 25 μl of test compound in buffer C containing 1% DMSO. For unspecific binding, PGD2 is added to the reaction mixture at 1 μM final concentration. This binding assay mix is incubated at it for 90 min and then filtered through a GF/C filter plate. The filter is washed three times with ice cold binding buffer. Then, 40 μl per well Microscint-40 (Packard) are added and the bound radioactivity is quantified by means of Topcourt (Packard).

Compound	pIC50 (hCRTH2 receptor [1])	pIC50 (hCRTH2 receptor [2])
CC(C)(C)OC(=O)N1CCc2c(c3cc(F)ccc3n2CC(=O)O)C1 [5-carboxymethyl-8-fluoro-1,3,4,5-tetrahydro-pyrido[4,3-b]indole-2-carboxylic acid tert-butyl ester]	7.66	
O=C(O)Cn1c2c(c3cc(C(F)(F)F)ccc31)CN(C(=O)c1ccccc1)CC2 [(2-benzoyl-8-trifluoromethyl-1,2,3,4-tetrahydro-pyrido[4,3-b]indol-5-yl)-acetic acid]		9.00
O=C(O)Cn1c2c(c3ccccc31)CN(C(=O)c1cccc3[nH]ccc13)CC2 [[2-(1H-indole-4-carbonyl)-1,2,3,4-tetrahydro-pyrido[4,3-b]indol-5-yl]-acetic acid]	7.72	
Cc1cccc(C(=O)N2CCc3c(c4ccccc4n3CC(=O)O)C2)c1Br [[2-(2-bromo-3-methyl-benzoyl)-1,2,3,4-tetrahydro-pyrido[4,3-b]indol-5-yl]-acetic acid]		7.85
COc1cc(C(=O)N2CCc3c(c4ccccc4n3CC(=O)O)C2)cc(OC)c1OC [[2-(3,4,5-trimethoxy-benzoyl)-1,2,3,4-tetrahydro-pyrido[4,3-b]indol-5-yl]-acetic acid]	7.04	
O=C(O)Cn1c2c(c3ccccc31)CN(C(=O)c1cccc(Cl)c1)CC2 [[2-(3-chloro-benzoyl)-1,2,3,4-tetrahydro-pyrido[4,3-b]indol-5-yl]-acetic acid]	6.76	7.82
O=C(O)Cn1c2c(c3ccccc31)CN(C(=O)c1ccc(Br)cc1)CC2 [[2-(4-bromo-benzoyl)-1,2,3,4-tetrahydro-pyrido[4,3-b]indol-5-yl]-acetic acid]	7.08	
CCc1ccc(-c2ccc(C(=O)N3CCc4c(c5ccccc5n4CC(=O)O)C3)cc2)cc1 [[2-(4′-ethyl-biphenyl-4-carbonyl)-1,2,3,4-tetrahydro-pyrido[4,3-b]indol-5-yl]-acetic acid]		8.15
CCc1ccc(-c2ccc(C(=O)N3CCc4c(c5cc(F)ccc5n4CC(=O)O)C3)cc2)cc1 [[2-(4′-ethyl-biphenyl-4-carbonyl)-8-fluoro-1,2,3,4-tetrahydro-pyrido[4,3-b]indol-5-yl]-acetic acid]		9.00

More lines, now with the values ahead:

pIC50 (hCRTH2 receptor [1])	pIC50 (hCRTH2 receptor [2])	Compound
	7.92	O=C(O)Cn1c2c(c3ccccc31)CN(C(=O)c1cccc3c(Br)cccc13)CC2 [[2-(5-bromo-naphthalene-1-carbonyl)-1,2,3,4-tetrahydro-pyrido[4,3-b]indol-5-yl]-acetic acid]
7.06		O=C(O)Cn1c2c(c3ccccc31)CN(C(=O)c1ccco1)CC2 [[2-(furan-2-carbonyl)-1,2,3,4-tetrahydro-pyrido[4,3-b]indol-5-yl]-acetic acid]
7.82		Cc1cccc(C(=O)N2CCc3c(c4cc(Br)ccc4n3CC(=O)O)C2)c1Br [[8-bromo-2-(2-bromo-3-methyl-benzoyl)-1,2,3,4-tetrahydro-pyrido[4,3-b]indol-5-yl]-acetic acid]
	8.40	O=C(O)Cn1c2c(c3cc(Br)ccc31)CN(C(=O)c1cccs1)CC2 [[8-bromo-2-(thiophene-2-carbonyl)-1,2,3,4-tetrahydro-pyrido[4,3-b]indol-5-yl]-acetic acid]
8.52		COc1ccc2ccccc2c1C(=O)N1CCc2c(c3cc(Cl)ccc3n2CC(=O)O)C1 [[8-chloro-2-(2-methoxy-naphthalene-1-carbonyl)-1,2,3,4-tetrahydro-pyrido[4,3-b]indol-5-yl]-acetic acid]
7.30		O=C(O)Cn1c2c(c3cc(Cl)ccc31)CN(C(=O)c1cccs1)CC2 [[8-chloro-2-(thiophene-2-carbonyl)-1,2,3,4-tetrahydro-pyrido[4,3-b]indol-5-yl]-acetic acid]
	8.52	O=C(O)Cn1c2c(c3cc(F)ccc31)CN(C(=O)Cc1cccc3ccccc13)CC2 [[8-fluoro-2-(2-naphthalen-1-yl-acetyl)-1,2,3,4-tetrahydro-pyrido[4,3-b]indol-5-yl]-acetic acid]
